Measured values from patent US20150125889A1, “IN VITRO DETECTION OF MICROORGANISMS WITH AZOREDUCTASE ACTIVITY” (BIOMÉRIEUX, priority 2012, published 2015).

Legend:
Test in all cases: Reduction of azo substrates over 24 hours at 35° C., microtitration plate (Example 1)
Format in all cases: cell-based
[1] = system: Enterococcus faecalis; parameters: key to RED (substrate reduced or not): RED indicates whether the substrate is reduced (Y) or not (N); RED indicates whether the substrate is reduced (Y) or not (N); key to Decol (substrate decolourized, decrease in absorbance) / Fluo (fluorescence multiplied by 2 relative to substrate-free control) / Co (growth, absorbance at 660 nm): The symbol “+” means good growth/decolourization/significant increase in fluorescence; The symbol “+/−” means difficult growth; The symbol “−” means that there is no growth/decolourization/significant increase in fluorescence; details: E. faecalis, substrate 35 mg/l
Method: (§1) Reduction of the “azo” function of the substrates listed in Table I by the species listed in Table II, each species being represented by a strain, is tested in a microtitration plate.
(§2) The reaction medium consists of: • Trypcase soya broth • Substrate 35 mg/l • 0.5 MacFarland inoculum
(§3) The reduction of the substrate and the growth of the microorganisms are monitored using an Infinite® M200 Tecan microplate reader at 35° C. over 24 hours.
(§4) The growth is monitored by the absorbance at 660 nm and the reduction of the substrates by absorbance and fluorescence at the specific wavelengths indicated in Table III.
(§5) The substrate is considered as reduced by the microorganisms when the substrate is decolourized (monitored by the decrease in absorbance) (Decol) and/or when the fluorescence of the substrate is multiplied by 2 relative to the base fluorescence of a substrate-free control (Fluo). The growth is indicated by Co. The symbol “+” means good growth/decolourization/significant increase in fluorescence. The symbol “+/−” means difficult growth. The symbol “−” means that there is no growth/decolourization/significant increase in fluorescence. RED indicates whether the substrate is reduced (Y) or not (N).

[2] = system: Acinetobacter baumanii; parameters: key to RED (substrate reduced or not): RED indicates whether the substrate is reduced (Y) or not (N); RED indicates whether the substrate is reduced (Y) or not (N); key to Decol (substrate decolourized, decrease in absorbance) / Fluo (fluorescence multiplied by 2 relative to substrate-free control) / Co (growth, absorbance at 660 nm): The symbol “+” means good growth/decolourization/significant increase in fluorescence; The symbol “+/−” means difficult growth; The symbol “−” means that there is no growth/decolourization/significant increase in fluorescence; details: A. baumannii, substrate 35 mg/l
Method: as §1, §2, §3, §4, §5

[3] = system: Kocuria rosea; parameters: key to RED (substrate reduced or not): RED indicates whether the substrate is reduced (Y) or not (N); RED indicates whether the substrate is reduced (Y) or not (N); key to Co (growth, absorbance at 660 nm) / Decol (substrate decolourized, decrease in absorbance) / Fluo (fluorescence multiplied by 2 relative to substrate-free control): The symbol “+” means good growth/decolourization/significant increase in fluorescence; The symbol “+/−” means difficult growth; The symbol “−” means that there is no growth/decolourization/significant increase in fluorescence; details: K. rosea, substrate 35 mg/l
Method: as §1, §2, §3, §4, §5

[4] = system: Candida albicans; parameters: key to RED (substrate reduced or not): RED indicates whether the substrate is reduced (Y) or not (N); RED indicates whether the substrate is reduced (Y) or not (N); key to Co (growth, absorbance at 660 nm) / Decol (substrate decolourized, decrease in absorbance) / Fluo (fluorescence multiplied by 2 relative to substrate-free control): The symbol “+” means good growth/decolourization/significant increase in fluorescence; The symbol “+/−” means difficult growth; The symbol “−” means that there is no growth/decolourization/significant increase in fluorescence; details: substrate 35 mg/l
Method: as §1, §2, §3, §4, §5

[5] = system: Cronobacter muytjensii; parameters: key to RED (substrate reduced or not): RED indicates whether the substrate is reduced (Y) or not (N); RED indicates whether the substrate is reduced (Y) or not (N); key to Co (growth, absorbance at 660 nm) / Decol (substrate decolourized, decrease in absorbance) / Fluo (fluorescence multiplied by 2 relative to substrate-free control): The symbol “+” means good growth/decolourization/significant increase in fluorescence; The symbol “+/−” means difficult growth; The symbol “−” means that there is no growth/decolourization/significant increase in fluorescence; details: E. muytjensii, substrate 35 mg/l
Method: as §1, §2, §3, §4, §5

[6] = system: Geotrichum candidum; parameters: key to RED (substrate reduced or not): RED indicates whether the substrate is reduced (Y) or not (N); RED indicates whether the substrate is reduced (Y) or not (N); key to Co (growth, absorbance at 660 nm) / Decol (substrate decolourized, decrease in absorbance) / Fluo (fluorescence multiplied by 2 relative to substrate-free control): The symbol “+” means good growth/decolourization/significant increase in fluorescence; The symbol “+/−” means difficult growth; The symbol “−” means that there is no growth/decolourization/significant increase in fluorescence; details: G. candidum, substrate 35 mg/l
Method: as §1, §2, §3, §4, §5

[7] = system: Escherichia coli; parameters: key to RED (substrate reduced or not): RED indicates whether the substrate is reduced (Y) or not (N); RED indicates whether the substrate is reduced (Y) or not (N); key to Co (growth, absorbance at 660 nm) / Decol (substrate decolourized, decrease in absorbance) / Fluo (fluorescence multiplied by 2 relative to substrate-free control): The symbol “+” means good growth/decolourization/significant increase in fluorescence; The symbol “+/−” means difficult growth; The symbol “−” means that there is no growth/decolourization/significant increase in fluorescence; details: E. coli, substrate 35 mg/l
Method: as §1, §2, §3, §4, §5

[8] = system: Staphylococcus aureus; parameters: key to RED (substrate reduced or not): RED indicates whether the substrate is reduced (Y) or not (N); RED indicates whether the substrate is reduced (Y) or not (N); key to Co (growth, absorbance at 660 nm) / Decol (substrate decolourized, decrease in absorbance) / Fluo (fluorescence multiplied by 2 relative to substrate-free control): The symbol “+” means good growth/decolourization/significant increase in fluorescence; The symbol “+/−” means difficult growth; The symbol “−” means that there is no growth/decolourization/significant increase in fluorescence; details: S. aureus, substrate 35 mg/l
Method: as §1, §2, §3, §4, §5

[9] = system: Pseudomonas aeruginosa; parameters: key to RED (substrate reduced or not): RED indicates whether the substrate is reduced (Y) or not (N); RED indicates whether the substrate is reduced (Y) or not (N); key to Co (growth, absorbance at 660 nm) / Decol (substrate decolourized, decrease in absorbance) / Fluo (fluorescence multiplied by 2 relative to substrate-free control): The symbol “+” means good growth/decolourization/significant increase in fluorescence; The symbol “+/−” means difficult growth; The symbol “−” means that there is no growth/decolourization/significant increase in fluorescence; details: P. aeruginosa, substrate 35 mg/l
Method: as §1, §2, §3, §4, §5

[10] = system: Staphylococcus epidermidis; parameters: key to RED (substrate reduced or not): RED indicates whether the substrate is reduced (Y) or not (N); RED indicates whether the substrate is reduced (Y) or not (N); key to Co (growth, absorbance at 660 nm) / Decol (substrate decolourized, decrease in absorbance) / Fluo (fluorescence multiplied by 2 relative to substrate-free control): The symbol “+” means good growth/decolourization/significant increase in fluorescence; The symbol “+/−” means difficult growth; The symbol “−” means that there is no growth/decolourization/significant increase in fluorescence; details: S. epidermidis, substrate 35 mg/l
Method: as §1, §2, §3, §4, §5

| Structure (SMILES) | Co (growth, absorbance at 660 nm) [1] | Decol (substrate decolourized, decrease in absorbance) [1] | Fluo (fluorescence multiplied by 2 relative to substrate-free control) [1] | RED (substrate reduced or not) [1] | Co (growth, absorbance at 660 nm) [2] | Decol (substrate decolourized, decrease in absorbance) [2] | Fluo (fluorescence multiplied by 2 relative to substrate-free control) [2] | RED (substrate reduced or not) [2] | Co (growth, absorbance at 660 nm) [3] | Decol (substrate decolourized, decrease in absorbance) [3] | Fluo (fluorescence multiplied by 2 relative to substrate-free control) [3] | Co (growth, absorbance at 660 nm) [4] | Decol (substrate decolourized, decrease in absorbance) [4] | Fluo (fluorescence multiplied by 2 relative to substrate-free control) [4] | RED (substrate reduced or not) [4] | Co (growth, absorbance at 660 nm) [5] | Decol (substrate decolourized, decrease in absorbance) [5] | Fluo (fluorescence multiplied by 2 relative to substrate-free control) [5] | RED (substrate reduced or not) [5] | Co (growth, absorbance at 660 nm) [6] | also measured |
| --- | --- | --- | --- | --- | --- | --- | --- | --- | --- | --- | --- | --- | --- | --- | --- | --- | --- | --- | --- | --- | --- |
| O=C(O)c1ccccc1/N=N/c1cc(Cl)c(O)c(Cl)c1 [2-(4-Hydroxy-3,5-dichlorophenylazo)benzoic acid] | + | + | + | Y | + | + | + | Y | − | − | − | + | − | − | N | + | + | + | Y | + | Decol (substrate decolourized, decrease in absorbance) [6]: +; Fluo (fluorescence multiplied by 2 relative to substrate-free control) [6]: +; RED (substrate reduced or not) [6]: Y; Co (growth, absorbance at 660 nm) [7]: +; Decol (substrate decolourized, decrease in absorbance) [7]: +; Fluo (fluorescence multiplied by 2 relative to substrate-free control) [7]: +; RED (substrate reduced or not) [7]: Y; Co (growth, absorbance at 660 nm) [8]: +; Decol (substrate decolourized, decrease in absorbance) [8]: +; Fluo (fluorescence multiplied by 2 relative to substrate-free control) [8]: +; RED (substrate reduced or not) [8]: Y; Co (growth, absorbance at 660 nm) [9]: +; Decol (substrate decolourized, decrease in absorbance) [9]: −; Fluo (fluorescence multiplied by 2 relative to substrate-free control) [9]: +; RED (substrate reduced or not) [9]: Y; Co (growth, absorbance at 660 nm) [10]: +; Decol (substrate decolourized, decrease in absorbance) [10]: +; Fluo (fluorescence multiplied by 2 relative to substrate-free control) [10]: +; RED (substrate reduced or not) [10]: Y |
| CC(=O)Oc1ccc(/N=N/c2ccccc2C(=O)O)cc1 [2-(4-acetoxyphenylazo)benzoic acid, 2-(4-Acetoxyphenylazo)benzoic acid] | + | + | + | Y | + | + | + | Y | − | − | − | + | − | − | N | + | + | + | Y | + | Decol (substrate decolourized, decrease in absorbance) [6]: +; Fluo (fluorescence multiplied by 2 relative to substrate-free control) [6]: +; RED (substrate reduced or not) [6]: Y; Co (growth, absorbance at 660 nm) [7]: +; Decol (substrate decolourized, decrease in absorbance) [7]: +; Fluo (fluorescence multiplied by 2 relative to substrate-free control) [7]: +; RED (substrate reduced or not) [7]: Y; Co (growth, absorbance at 660 nm) [8]: +; Decol (substrate decolourized, decrease in absorbance) [8]: +; Fluo (fluorescence multiplied by 2 relative to substrate-free control) [8]: +; RED (substrate reduced or not) [8]: Y; Co (growth, absorbance at 660 nm) [9]: +; Decol (substrate decolourized, decrease in absorbance) [9]: −; Fluo (fluorescence multiplied by 2 relative to substrate-free control) [9]: −; RED (substrate reduced or not) [9]: N; Co (growth, absorbance at 660 nm) [10]: +; Decol (substrate decolourized, decrease in absorbance) [10]: +; Fluo (fluorescence multiplied by 2 relative to substrate-free control) [10]: +; RED (substrate reduced or not) [10]: Y |
